According to patent US20110173718A1, “HERBICIDE TOLERANT PLANTS” (SYNGENTA CROP PROTECTION, INC., priority 2008, published 2011):
Values joined by “and” are separate entries in the source; they are usually repeats but may differ in a detail not shown here. Equal values may be shown once.

Key:
Format in all cases: in vivo
[1] = tested on: weeds; experiment: Glasshouse weed control, HST inhibitors alone and with A22, post-emergence; conditions: 14 DAT, single replicate
Method: (§1) In a further test, the results of which are depicted in tables 18 and 19, weed seeds are planted out in trays containing 50% peat/50% John Innes no. 3 soil and grown in the glass house at 24-27 C day; 18-21 C night and approximately a 15 h photoperiod. Humidity is ˜65% and light levels at bench level are up to 2 mmol/m^2. Again all spray chemicals are dissolved in 0.2% X77 surfactant and sprayed from a boom on a track sprayer moving at 2 mph with the nozzle set about 2 inches above the plant tops. The spray volume is […]. Sprays are carried out both pre-emergence and post-emergence over small plants at about 7-12 d post-emergence. Plants are assessed at 14 DAT with herbicidal damage scored on a scale from 0 to 100%. The HPPD inhibiting herbicide is compound A22 (4-hydroxy-3-[[2-(2-methoxyethoxy)methyl]-6-(trifluoromethyl)-3-pyridinylicarbonyl]-bicyclo[3.2.1]oct-3-en-2-one) which is sprayed at 2 g/ha both alone and in mixture with various HST herbicides. Results and spray rates are depicted in Tables 18 and 19. Again the Colby formula has been used to calculate synergy scores observed following treatment with the mixture based on the results obtained with the single components alone. Positive synergy is observed between the HPPD herbicide and a wide variety of HST inhibitor herbicides applied both pre and postemergence across a variety of weeds.

[2] = tested on: weeds; experiment: Glasshouse weed control, HST inhibitors alone and with A22, pre-emergence; conditions: 14 DAT
Method: as §1

[3] = tested on: wild-type (WT) Samsun tobacco; experiment: Glasshouse spray test, wild-type tobacco; conditions: Norflurazon, 150 g/ha; 14 DAT; WT control, reps
Method: Rooted transgenic T0 plantlets are transferred from agar and potted into 50% peat, 50% John Innes soil no 3 or, for example, MetroMix® 380 soil (Sun Gro Horticulture, Bellevue, Wash.) with slow-release fertilizer in 3 inch round or 4 inch square pots and left regularly watered to establish for 8-12 d in the glass house. Glass house conditions are about 24-27° C. day; 18-21° C. night and approximately a 14 h (or longer in UK summer) photoperiod. Humidity is ˜65% and light levels up to 2000 μmol/m^2 at bench level. Once new tissue emerges and plants they have reached the 2-4 leaf stage some of the clones from each event are sprayed with test chemicals dissolved in water with 0.2-0.25% X-77 surfactant and sprayed from a boom on a suitable track sprayer moving at 2 mph in a DeVries spray chamber with the nozzle about 2 inches from the plant tops. Spray volume is suitably 25 gallons per acre or, for example, […].
Test chemicals are, for example, compound 2.3 at 500 g/ha. At the same time that transgenic plants are sprayed so too are w/t Samsun tobacco plants grown from seed as well as non-transgenic plants regenerated from tissue culture and non-transgenic tissue culture escapes. Damage is assessed versus unsprayed control plants of like size and development.
6 Seed from w/t Samsun tobacco and 8 T1 seed from events B8 and G9 are also planted out in 3 inch pots, grown on for 7 to 12 d and then, as described in the foregoing examples, the plantlets spray tested for resistance to various chemicals and assessed at 14 DAT. Chemicals are formulated in 0.2% X77 and sprayed at a spray volume of 200 l/ha.
Seed of wild-type tobacco plants, C2 tobacco plants and of the T1 progeny of a further Arabidopsis-HST expressing tobacco line, D2 were planted out in 3 inch pots, grown on, sprayed with compounds 1.1, 2.30 and 3.6 at the rates shown in table 5. Percent damage scores were assessed at 7 DAT. Aside from the presumptive non-transgenic segregants the D2 line containing the Arabidopis HST expression construct offered the highest level of tolerance to the two HST herbicides with the Psuedomonas HPPD, C2 line, offering only marginal tolerance under the conditions of this test.
Single copy events amongst the T1 plant lines are identified by their 3:1 segregation ratio (wrt kanamycin and or herbicide) and by quantitative RT-PCR. Seed from the thus selected T1 tobacco (var Samsun) lines are sown in 3 inch diameter pots containing 50% peat, 50% John Innes soil no 3. After growth to the 3 leaf stage, plants are sprayed, as described above, in order to test for herbicide tolerance relative to like-treated non-transgenic tobacco plants.
Control tobacco plants and transgenic T1 plants expressing either the Pseudomonas or the wheat HPPD gene are sprayed at 37, 111, 333 and 1000 g/ha rates of HST inhibitors and, for example, compound 2.3.
Plants are assessed and scored for % damage at 16 DAT.

For `CC(C)(C)C(=O)Oc1c(-c2c(F)ccc(Cl)c2Cl)c(=O)n(CC(F)F)c2nccnc12` [Compound 2.25], the “% control score, Obs” value ([1]; BRAPL, 15.625 g/ha alone) was 15%, the “% control score, Obs” value ([1]; BRAPL, 62.5 g/ha alone) was 30% and the “% control score, Obs” value ([1]; BRAPL, 250 g/ha alone) was 60%. The “% control score, Obs” value ([1]; DIGSA, 15.625 g/ha alone) was 0%, the “% control score, Obs” value ([1]; DIGSA, 62.5 g/ha alone) was 2% and the “% control score, Obs” value ([1]; DIGSA, 250 g/ha alone) was 10%. The “% control score, Obs” value ([1]; ECHCG, 15.625 g/ha alone) was 1%, the “% control score, Obs” value ([1]; ECHCG, 62.5 g/ha alone) was 2% and the “% control score, Obs” value ([1]; ECHCG, 250 g/ha alone) was 30%. The “% control score, Obs” value ([1]; PANMI, 15.625 g/ha alone) was 2%, the “% control score, Obs” value ([1]; PANMI, 62.5 g/ha alone) was 10% and the “% control score, Obs” value ([1]; PANMI, 250 g/ha alone) was 55%. The “% control score, Obs” value ([1]; SETFA, 15.625 g/ha alone) was 1%, the “% control score, Obs” value ([1]; SETFA, 62.5 g/ha alone) was 5% and the “% control score, Obs” value ([1]; SETFA, 250 g/ha alone) was 40%. The “% control score, Obs” value ([1]; SIDSP, 15.625 g/ha alone) was 10%, the “% control score, Obs” value ([1]; SIDSP, 62.5 g/ha alone) was 30% and the “% control score, Obs” value ([1]; SIDSP, 250 g/ha alone) was 40%. For the same compound, the “BRAPL Obs, % control score” value ([2]; HST inhibitor rate 15.625 g/ha) was 0%, the “BRAPL Obs, % control score” value ([2]; HST inhibitor rate 62.5 g/ha) was 2% and the “BRAPL Obs, % control score” value ([2]; HST inhibitor rate 250 g/ha) was 20%. The “DIGSA Obs, % control score” value ([2]; HST inhibitor rate 15.625 g/ha) was 0%, the “DIGSA Obs, % control score” value ([2]; HST inhibitor rate 62.5 g/ha) was 0% and the “DIGSA Obs, % control score” value ([2]; HST inhibitor rate 250 g/ha) was 5%. For the same compound, the “ECHCG Obs, % control score” value ([2]; HST inhibitor rate 15.625 g/ha) was 0%, the “ECHCG Obs, % control score” value ([2]; HST inhibitor rate 62.5 g/ha) was 0% and the “ECHCG Obs, % control score” value ([2]; HST inhibitor rate 250 g/ha) was 30%. For the same compound, the “PANMI Obs, % control score” value ([2]; HST inhibitor rate 15.625 g/ha) was 0%, the “PANMI Obs, % control score” value ([2]; HST inhibitor rate 62.5 g/ha) was 0% and the “PANMI Obs, % control score” value ([2]; HST inhibitor rate 250 g/ha) was 10%. For the same compound, the “SETFA Obs, % control score” value ([2]; HST inhibitor rate 15.625 g/ha) was 0%, the “SETFA Obs, % control score” value ([2]; HST inhibitor rate 62.5 g/ha) was 1% and the “SETFA Obs, % control score” value ([2]; HST inhibitor rate 250 g/ha) was 15%. For the same compound, the “SIDSP Obs, % control score” value ([2]; HST inhibitor rate 15.625 g/ha) was 0%, the “SIDSP Obs, % control score” value ([2]; HST inhibitor rate 62.5 g/ha) was 1% and the “SIDSP Obs, % control score” value ([2]; HST inhibitor rate 250 g/ha) was 2%.

With `CC(C)C(=O)Oc1c(-c2c(Cl)cccc2C(F)(F)F)c(=O)n(CC(F)F)c2nccnc12` [Compound 2.28] the “% control score, Obs” value ([1]; BRAPL, 15.625 g/ha alone) was 5%, the “% control score, Obs” value ([1]; BRAPL, 62.5 g/ha alone) was 50% and the “% control score, Obs” value ([1]; BRAPL, 250 g/ha alone) was 75%. For the same compound, the “% control score, Obs” value ([1]; DIGSA, 15.625 g/ha alone) was 10%, the “% control score, Obs” value ([1]; DIGSA, 62.5 g/ha alone) was 50% and the “% control score, Obs” value ([1]; DIGSA, 250 g/ha alone) was 70%. For the same compound, the “% control score, Obs” value ([1]; ECHCG, 15.625 g/ha alone) was 2%, the “% control score, Obs” value ([1]; ECHCG, 62.5 g/ha alone) was 40% and the “% control score, Obs” value ([1]; ECHCG, 250 g/ha alone) was 70%. For the same compound, the “% control score, Obs” value ([1]; PANMI, 15.625 g/ha alone) was 1%, the “% control score, Obs” value ([1]; PANMI, 62.5 g/ha alone) was 35% and the “% control score, Obs” value ([1]; PANMI, 250 g/ha alone) was 70%. For the same compound, the “% control score, Obs” value ([1]; SETFA, 15.625 g/ha alone) was 2%, the “% control score, Obs” value ([1]; SETFA, 62.5 g/ha alone) was 50% and the “% control score, Obs” value ([1]; SETFA, 250 g/ha alone) was 80%. For the same compound, the “% control score, Obs” value ([1]; SIDSP, 15.625 g/ha alone) was 15%, the “% control score, Obs” value ([1]; SIDSP, 62.5 g/ha alone) was 40% and the “% control score, Obs” value ([1]; SIDSP, 250 g/ha alone) was 50%. The “BRAPL Obs, % control score” value ([2]; HST inhibitor rate 15.625 g/ha) was 0%, the “BRAPL Obs, % control score” value ([2]; HST inhibitor rate 62.5 g/ha) was 2% and the “BRAPL Obs, % control score” value ([2]; HST inhibitor rate 250 g/ha) was 50%. The “DIGSA Obs, % control score” value ([2]; HST inhibitor rate 15.625 g/ha) was 0%, the “DIGSA Obs, % control score” value ([2]; HST inhibitor rate 62.5 g/ha) was 0% and the “DIGSA Obs, % control score” value ([2]; HST inhibitor rate 250 g/ha) was 30%. The “ECHCG Obs, % control score” value ([2]; HST inhibitor rate 15.625 g/ha) was 0%, the “ECHCG Obs, % control score” value ([2]; HST inhibitor rate 62.5 g/ha) was 50% and the “ECHCG Obs, % control score” value ([2]; HST inhibitor rate 250 g/ha) was 80%. The “PANMI Obs, % control score” value ([2]; HST inhibitor rate 15.625 g/ha) was 0%, the “PANMI Obs, % control score” value ([2]; HST inhibitor rate 62.5 g/ha) was 0% and the “PANMI Obs, % control score” value ([2]; HST inhibitor rate 250 g/ha) was 60%. For the same compound, the “SETFA Obs, % control score” value ([2]; HST inhibitor rate 15.625 g/ha) was 0%, the “SETFA Obs, % control score” value ([2]; HST inhibitor rate 62.5 g/ha) was 25% and the “SETFA Obs, % control score” value ([2]; HST inhibitor rate 250 g/ha) was 60%. The “SIDSP Obs, % control score” value ([2]; HST inhibitor rate 15.625 g/ha) was 0%, the “SIDSP Obs, % control score” value ([2]; HST inhibitor rate 62.5 g/ha) was 0% and the “SIDSP Obs, % control score” value ([2]; HST inhibitor rate 250 g/ha) was 10%.

For `COCCOCc1nc(C(F)(F)F)ccc1C(=O)C1=C(O)C2CCC(C2)C1=O` (stereo not shown) [Compound A22, 4-hydroxy-3-[[2-(2-methoxyethoxy)methyl]-6-(trifluoromethyl)-3-pyridinylicarbonyl]-bicyclo[3.2.1]oct-3-en-2-one, reference compound], the “% control score, Obs” value ([1]; BRAPL, A22 alone 2 g/ha) was 2%, the “% control score, Obs” value ([1]; DIGSA, A22 alone 2 g/ha) was 5% and the “% control score, Obs” value ([1]; ECHCG, A22 alone 2 g/ha) was 30%. For the same compound, the “% control score, Obs” value ([1]; PANMI, A22 alone 2 g/ha) was 50% and 55%, the “% control score, Obs” value ([1]; SETFA, A22 alone 2 g/ha) was 10% and 2% and the “% control score, Obs” value ([1]; SIDSP, A22 alone 2 g/ha) was 20% and 15%. The “BRAPL Obs, % control score” value ([2]; rate 2 g/ha) was 0%, the “DIGSA Obs, % control score” value ([2]; rate 2 g/ha) was 2% and 0% and the “ECHCG Obs, % control score” value ([2]; rate 2 g/ha) was 5% and 0%. For the same compound, the “PANMI Obs, % control score” value ([2]; rate 2 g/ha) was 0%, the “SETFA Obs, % control score” value ([2]; rate 2 g/ha) was 5% and 0% and the “SIDSP Obs, % control score” value ([2]; rate 2 g/ha) was 2% and 0%.

For `CNc1cnn(-c2cccc(C(F)(F)F)c2)c(=O)c1Cl` [Norflurazon, reference compound], the herbicide % damage [3] was 20% and 15% and 10%.
